15 compounds from ChEMBL document CHEMBL5356975, “Brønsted Acid-Mediated Conversion of Naturally Abundant Lathyrane Diterpenes: Are Rare 10,11-seco-Lathyrane Diterpenes Artifacts?” (J Nat Prod, 2024) can be followed below.

In data set [1] the test system is BV-2. Description: Cytotoxicity against mouse BV-2 cells assessed as reduction in cell viability at 20 uM incubated for 24 hrs by MTT assay. The data set is classed as toxicity, cell-based. The note with it: bv-2, 24 h.
Data set [2] has as its system BV-2. As to the kind of experiment: Antineuroinflammatory activity in LPS induced mouse BV-2 cells assessed as inhibition of NO production at 20 uM pretreated for 4 hrs followed by LPS addition and measured after 24 hrs by griess reagent based assay relative to control. The format is functional. The note with it: time 28 hrs. (In general: The Griess reaction detects nitrite, a stable product of nitric oxide.)

For data set [3], the system named is BV-2. Description: Antineuroinflammatory activity in LPS induced mouse BV-2 cells assessed as inhibition of NO production pretreated for 4 hrs followed by LPS addition and measured after 24 hrs by griess reagent based assay. The format is functional, cell-based.
Data set [4] concerns BV-2. Description: Antineuroinflammatory activity in LPS induced mouse BV-2 cells assessed as reduction in iNOS protein expression at 10 uM pretreated for 4 hrs followed by LPS addition and measured after 24 hrs by Western blot analysis. The data set is classed as functional, cell-based. Conditions: time 28.0 hrs.
The test system of data set [5] is BV-2. Description: Antineuroinflammatory activity in LPS induced mouse BV-2 cells assessed as reduction in COX-2 protein expression at 10 uM pretreated for 4 hrs followed by LPS addition and measured after 24 hrs by Western blot analysis. The data set is classed as functional, cell-based. The note with it: time 28.0 hrs.

Structures are written as SMILES. Calls of active or inactive are those of the source. The rule behind the calls is not given here.

As usually defined, the inhibition is how much of the control response was suppressed. In general, IC50 refers to the concentration that inhibits the measured activity by half. For `C=CC(=O)OC(C)(C)[C@@H]1/C=C/[C@@H](C)C(=O)[C@@]2(O)C[C@H](C)[C@H](O)[C@@H]2[C@@H](O)C(=C)[C@@H](O)C1`, in data set [1], the Activity result was “Non-Toxic”. The inhibition at 20 µM in data set [2] turned out to be 70%. Besides, the half-maximal inhibitory concentration (IC50) in data set [3] was 7.7 µM.

As to `C=C1[C@@H](O)C[C@H](C(C)(C)OC(C)=O)/C=C/[C@@H](C)C(=O)[C@@]2(O)C[C@H](C)[C@H](O)[C@@H]2[C@H]1O`, the Activity entry in data set [1] is “Non-Toxic”.

Take `C=C1[C@@H](O)C[C@H](C(C)(C)OC(=O)COCC)/C=C/[C@@H](C)C(=O)[C@@]2(O)C[C@H](C)[C@H](O)[C@@H]2[C@H]1O`: in data set [1], the Activity entry is reported as “Non-Toxic”.

Consider `C=C1[C@@H](O)C[C@H](C(C)(C)OC(=O)CC)/C=C/[C@@H](C)C(=O)[C@@]2(O)C[C@H](C)[C@H](O)[C@@H]2[C@H]1O`, for which the Activity result in data set [1] is listed as “Non-Toxic”.

`C=C1[C@@H](O)C[C@H](C(C)(C)OCC)/C=C/[C@@H](C)C(=O)[C@@]2(O)C[C@H](C)[C@H](O)[C@@H]2[C@H]1O`: in data set [1], the Activity result is listed as “Non-Toxic”.

Turning to `C=C1CC[C@H](C(C)(C)OCCCO)/C=C/[C@@H](C)C(=O)[C@@]2(O)C[C@H](C)[C@H](O)[C@@H]2[C@H]1O`, the Activity entry in data set [1] was “Non-Toxic”. In data set [2], the inhibition at 20 µM was 63%. In addition, the IC50 in data set [3] is 13 µM.

Regarding `C=CC(=O)OC(C)(C)[C@@H]1/C=C/[C@@H](C)C(=O)[C@@]2(O)C[C@H](C)[C@H](O)[C@@H]2[C@@H](O)C(=C)CC1`, in data set [1], the Activity entry is listed as “Non-Toxic”. Moreover, in data set [2], the inhibition at 20 µM is 73%. In addition, in data set [3], the IC50 is 6.2 µM. In addition, the result in data set [4] and in data set [5] was Active.

`O=c1c(O)c(-c2ccc(O)c(O)c2)oc2cc(O)cc(O)c12` [QUERCETIN]: the 50% inhibitory concentration (IC50) in data set [3] was 10 µM.

For the compound `C=C1CC[C@H](C(C)(C)OC)/C=C/[C@@H](C)C(=O)[C@@]2(O)C[C@H](C)[C@H](O)[C@@H]2[C@H]1O`, the Activity entry in data set [1] is on record as “Non-Toxic”.

`C=C1CC[C@H](C(C)(C)OC(C)=O)/C=C/[C@@H](C)C(=O)[C@@]2(O)C[C@H](C)[C@H](O)[C@@H]2[C@H]1O`: in data set [1], the Activity entry is listed as “Non-Toxic”.

For `C=C1CC[C@H](C(C)(C)OC(=O)CC)/C=C/[C@@H](C)C(=O)[C@@]2(O)C[C@H](C)[C@H](O)[C@@H]2[C@H]1O`, the Activity entry in data set [1] is recorded as “Non-Toxic”.

As for `C=C1[C@@H](O)C[C@H](C(C)(C)OCCCO)/C=C/[C@@H](C)C(=O)[C@@]2(O)C[C@H](C)[C@H](O)[C@@H]2[C@H]1O`, in data set [1], the Activity result is listed as “Non-Toxic”. Also, in data set [2], the inhibition at 20 µM was determined as 56%. Besides, in data set [3], the IC50 worked out at 18 µM.

With `C=C1CC[C@H](C(C)(C)OC(=O)COCC)/C=C/[C@@H](C)C(=O)[C@@]2(O)C[C@H](C)[C@H](O)[C@@H]2[C@H]1O`, the Activity result in data set [1] is listed as “Non-Toxic”.

`C=C1CC[C@H](C(C)(C)OCC)/C=C/[C@@H](C)C(=O)[C@@]2(O)C[C@H](C)[C@H](O)[C@@H]2[C@H]1O`: the Activity result in data set [1] is “Non-Toxic”.

`C=C1[C@@H](O)C[C@H](C(C)(C)OC)/C=C/[C@@H](C)C(=O)[C@@]2(O)C[C@H](C)[C@H](O)[C@@H]2[C@H]1O`: the Activity entry in data set [1] is “Non-Toxic”.
